Measured values taken from patent US8841460B2, “Tunable phenylacetylene hosts” (State of Oregon, acting by and through the State Board of …, priority 2011, dated 2014).

Key:
[1] = Photoluminescence quantum yield and Stokes shift in MeCN; type: physicochemical
Protocol: This example describes general materials and methods used in the synthesis and characterization of exemplary host compounds. All solvents were dried over 3 Å molecular sieves unless otherwise stated. THF, Et3N, and CH2Cl2 were respectively distilled from potassium metal and CaH2 prior to use. All other materials were obtained from TCI-America, Sigma-Aldrich, Acros and Strem and used as received. ^1H and ^13C NMR spectra were recorded using a Varian Inova 300 (^1H 299.95 MHz, ^13C 75.43 MHz) or Inova 500 (^1H 500.10 MHz, ^13C 125.75 MHz) spectrometer. Chemical shifts (δ) expressed as ppm downfield from tetramethylsilane using either the residual solvent peak as an internal standard (CDCl3 ^1H, 7.27 ppm) or using CDCl3 spiked with 1% […] for the ^1H NMR spectra. For the ^13C NMR spectra the middle CDCl3 peak (δ 77.00 ppm) was used as the internal standard. Signal patterns are indicated as b, broad; s, singlet; d, doublet; t, triplet; m, multiplet. Coupling constants (J) are given in hertz. UV-Vis spectra were recorded using a Hewlett-Packard 8453 spectrophotometer and extinction coefficients are expressed in M^−1 cm^−1. Mass spectra were recorded using an Agilent 1100 Series LC/MSD. Emission spectra were recorded on a Hitachi F-4500 fluorescence spectrophotometer. Melting points were determined with a Meltemp II apparatus or a TA Instruments DSC 2920 Modulated DSC. […]

[2] = Absorption/fluorescence response upon addition of TFA; details: reversed by aqueous base
Source text: The absorption spectra of compounds 6-8 and 10 are dominated by a characteristic pattern consisting of three peaks. There is a lack of significant spectral changes associated with conversion of diamide 8 to disulfide 10, which is not unexpected, as overall conjugation remains limited by the methylene spacer.

| Compound | Quantum Yield (PLQY) [1] | Stokes Shift [1] | spectral change upon addition of TFA [2] |
| --- | --- | --- | --- |
| CC(C)(C)c1ccc(N)c(C#Cc2cccc(C#Cc3cc(C(C)(C)C)ccc3N)n2)c1 [Dianiline 6, 2,2′-(pyridine-2,6-diylbis(ethyne-2,1-diyl))bis(4-tert-butylaniline)] | 0.6% | 5270 cm⁻¹ |  |
| CC(C)(C)c1ccc2c(c1)C#Cc1cccc(n1)C#Cc1cc(C(C)(C)C)ccc1NC(=O)CSSCC(=O)N2 [disulfide 10] |  |  | conversion from a colorless solution with purple fluorescence to a deep yellow solution with yellow fluorescence |
